The results in this text go back to ChEMBL document CHEMBL4823279, “Epigenetic Manipulation to Trigger Production of Guaiane-Type Sesquiterpenes from a Marine-Derived Spiromastix sp. Fungus with Antineuroinflammatory Effects” (J Nat Prod, 2021).

For data set [1], the system named is BV-2. Nature of the data set: Anti-neuroinflammatory activity in mouse BV-2 cells assessed as inhibition of LPS-induced NO production measured after 24 hrs by Griess reagent based assay. It counts as functional, cell-based. Particulars: BV-2, 24 h.
The nature of data set [2]: Cytotoxicity against mouse BV-2 cells assessed as reduction in cell viability measured after 24 hrs by MTT assay. It counts as cell-based.
Data set [3] deals with MAP kinase p38 (Mus musculus) (UniProt P47811+O08911+Q9WUI1+Q9Z1B7). Nature of the data set: Inhibition of p38 phosphorylation in LPS stimulated mouse BV-2 cells at 1 to 10 uM preincubated with LPS for 1 hr followed by incubation with compound for 16 hrs by western blot analysis. In kind it is cell-based. To be noted: dose 1-10 µM. Background: In western blotting, separated proteins are transferred to a membrane and probed.

The subject of data set [4] is BV-2. Nature of the data set: Anti-neuroinflammatory activity in mouse BV-2 cells assessed as reduction in LPS-stimulated IL-1beta mRNA expression by qRT-PCR analysis. In kind it is functional, cell-based. To be noted: dose 1-10 µM. A general note: Quantitative PCR measures a nucleic acid by following its amplification.
Data set [5] has as its system BV-2. Nature of the data set: Anti-neuroinflammatory activity in mouse BV-2 cells assessed as reduction in LPS-stimulated IL-6 mRNA expression by qRT-PCR analysis. It counts as functional, cell-based. Particulars: dose 1-10 µM.
In data set [6] the test system is BV-2. Nature of the data set: Anti-neuroinflammatory activity against LPS stimulated mouse BV-2 cells assessed as reduction in COX-2 protein expression at 1 to 10 uM measured after 24 hrs in presence of LPS by western blot analysis. In kind it is functional, cell-based. Particulars: dose 1-10 µM.
The test system of data set [7] is BV-2. Nature of the data set: Inhibition of ERK phosphorylation in LPS stimulated mouse BV-2 cells at 1 to 10 uM preincubated with LPS for 1 hr followed by incubation with compound for 16 hrs by western blot analysis. In kind it is cell-based. To be noted: dose 1-10 µM.
Data set [8] deals with BV-2. Nature of the data set: Anti-neuroinflammatory activity in mouse BV-2 cells assessed as reduction in LPS-stimulated TNFalpha production at 1 to 10 uM preincubated for 1 hr followed by LPS treatment and measured after 24 hrs by ELISA. It counts as functional, cell-based. Particulars: dose 1-10 µM, time 25.0 hrs. (In general: ELISA stands for enzyme-linked immunosorbent assay.)

For data set [9], the system named is BV-2. Nature of the data set: Anti-neuroinflammatory activity in mouse BV-2 cells assessed as reduction in LPS-stimulated iNOS mRNA expression at 1 to 10 uM by qRT-PCR analysis. It counts as functional, cell-based. To be noted: dose 1-10 µM.
Data set [10] deals with BV-2. Nature of the data set: Anti-neuroinflammatory activity in mouse BV-2 cells assessed as reduction in LPS-stimulated TNF-alpha mRNA expression by qRT-PCR analysis. In kind it is functional, cell-based. Particulars: dose 1-10 µM.
In data set [11] the test system is BV-2. Nature of the data set: Anti-neuroinflammatory activity in mouse BV-2 cells assessed as reduction in LPS-stimulated IL-6 production at 1 to 10 uM preincubated for 1 hr followed by LPS treatment and measured after 24 hrs by ELISA. It counts as functional, cell-based. To be noted: dose 1-10 µM, time 25.0 hrs.
Data set [12] relates to BV-2. Nature of the data set: Anti-neuroinflammatory activity in mouse BV-2 cells assessed as reduction in LPS-stimulated COX-2 mRNA expression at 1 to 10 uM by qRT-PCR analysis. In kind it is functional, cell-based. To be noted: dose 1-10 µM.
Data set [13] concerns the target Transcription factor p65 (Mus musculus) (UniProt Q04207). Nature of the data set: Inhibition of NF-kappaB p65 nuclear translocation in LPS-stimulated mouse BV-2 cells at 10 uM incubated with compound prior to LPS stimulation by DAPI staining based immunofluorescence assay. It counts as cell-based.
Data set [14] has as its system BV-2. Nature of the data set: Anti-neuroinflammatory activity against LPS stimulated mouse BV-2 cells assessed as reduction in iNOS protein expression measured after 24 hrs in presence of LPS by western blot analysis. It counts as functional, cell-based. To be noted: dose 1-10 µM.
Data set [15] deals with BV-2. Nature of the data set: Inhibition of TLR4 production in LPS stimulated mouse BV-2 cells at 1 to 10 uM preincubated with LPS for 1 hr followed by incubation with compound for 16 hrs by western blot analysis. In kind it is functional, cell-based. To be noted: dose 1-10 µM.
For data set [16], the target named is c-Jun N-terminal kinase (Mus musculus) (UniProt Q91Y86+Q9WTU6+Q61831). Nature of the data set: Inhibition of JNK phosphorylation in LPS stimulated mouse BV-2 cells at 1 to 10 uM preincubated with LPS for 1 hr followed by incubation with compound for 16 hrs by western blot analysis. To be noted: dose 1-10 µM. It counts as cell-based.
In data set [17] the test system is BV-2. Nature of the data set: Anti-neuroinflammatory activity in mouse BV-2 cells assessed as reduction in LPS-stimulated IL-1 beta production at 1 to 10 uM preincubated for 1 hr followed by LPS treatment and measured after 24 hrs by ELISA. To be noted: dose 1-10 µM, time 25.0 hrs. In kind it is functional, cell-based.

Each structure is given as a SMILES string. pIC50: −log10 of the molar value. The source made the active and inactive calls. The calls are words filed in the database; no cut-off is given here. Where only a bound is given, the exact number is not on record here.

Transcription factor p65 (Mus musculus), sequence (Q04207 whole entry): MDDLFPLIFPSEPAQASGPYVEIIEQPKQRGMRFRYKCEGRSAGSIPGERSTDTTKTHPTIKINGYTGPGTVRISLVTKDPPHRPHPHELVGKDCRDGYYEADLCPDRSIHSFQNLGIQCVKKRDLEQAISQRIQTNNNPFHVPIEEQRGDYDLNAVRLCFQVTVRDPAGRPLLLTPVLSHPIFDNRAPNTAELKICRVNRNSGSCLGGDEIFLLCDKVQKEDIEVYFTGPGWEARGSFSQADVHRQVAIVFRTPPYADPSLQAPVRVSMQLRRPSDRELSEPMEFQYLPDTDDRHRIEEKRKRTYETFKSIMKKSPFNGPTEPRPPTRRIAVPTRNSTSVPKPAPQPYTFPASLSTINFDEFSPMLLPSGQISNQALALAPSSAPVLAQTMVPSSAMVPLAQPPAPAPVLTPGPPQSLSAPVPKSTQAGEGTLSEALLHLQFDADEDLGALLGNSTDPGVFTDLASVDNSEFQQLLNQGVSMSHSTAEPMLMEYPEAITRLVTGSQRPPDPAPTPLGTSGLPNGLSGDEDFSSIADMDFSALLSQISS
c-Jun N-terminal kinase (Mus musculus), sequence (Q61831 whole entry, looked up): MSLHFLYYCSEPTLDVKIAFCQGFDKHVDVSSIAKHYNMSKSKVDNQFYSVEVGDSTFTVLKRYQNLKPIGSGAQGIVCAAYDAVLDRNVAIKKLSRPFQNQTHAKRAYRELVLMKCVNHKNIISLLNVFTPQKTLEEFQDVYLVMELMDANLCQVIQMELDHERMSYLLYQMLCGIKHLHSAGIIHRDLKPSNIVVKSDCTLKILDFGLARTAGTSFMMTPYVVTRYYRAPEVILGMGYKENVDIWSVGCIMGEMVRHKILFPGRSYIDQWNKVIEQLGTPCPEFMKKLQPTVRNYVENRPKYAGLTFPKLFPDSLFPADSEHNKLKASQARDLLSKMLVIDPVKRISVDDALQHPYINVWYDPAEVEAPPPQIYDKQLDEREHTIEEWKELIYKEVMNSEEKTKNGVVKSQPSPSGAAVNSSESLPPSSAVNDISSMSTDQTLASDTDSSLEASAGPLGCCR
c-Jun N-terminal kinase (Mus musculus), sequence (Q91Y86 whole entry, looked up): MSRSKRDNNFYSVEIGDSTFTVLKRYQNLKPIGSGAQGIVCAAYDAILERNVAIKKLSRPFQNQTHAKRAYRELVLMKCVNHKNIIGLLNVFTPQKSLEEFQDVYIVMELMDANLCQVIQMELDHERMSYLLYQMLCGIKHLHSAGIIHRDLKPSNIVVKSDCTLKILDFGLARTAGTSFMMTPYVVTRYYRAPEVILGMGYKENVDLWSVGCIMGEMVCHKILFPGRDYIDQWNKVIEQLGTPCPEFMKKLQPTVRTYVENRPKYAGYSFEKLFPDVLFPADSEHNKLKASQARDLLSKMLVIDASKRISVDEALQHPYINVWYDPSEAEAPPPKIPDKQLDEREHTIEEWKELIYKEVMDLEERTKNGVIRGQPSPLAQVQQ
c-Jun N-terminal kinase (Mus musculus), sequence (Q9WTU6 whole entry, looked up): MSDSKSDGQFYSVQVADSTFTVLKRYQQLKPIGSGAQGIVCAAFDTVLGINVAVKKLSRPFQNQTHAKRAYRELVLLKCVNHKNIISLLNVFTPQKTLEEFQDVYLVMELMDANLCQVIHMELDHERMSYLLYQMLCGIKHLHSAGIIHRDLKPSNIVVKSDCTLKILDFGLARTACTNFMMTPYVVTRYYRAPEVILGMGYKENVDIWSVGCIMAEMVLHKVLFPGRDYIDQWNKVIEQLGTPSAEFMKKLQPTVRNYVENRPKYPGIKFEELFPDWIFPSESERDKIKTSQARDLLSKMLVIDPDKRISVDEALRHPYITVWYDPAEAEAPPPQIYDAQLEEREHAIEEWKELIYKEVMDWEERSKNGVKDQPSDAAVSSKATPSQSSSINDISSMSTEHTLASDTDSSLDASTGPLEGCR

As to `Cc1c2c(cc(C(C)C)cc1=O)[C@@H](C)CC2`, the pIC50 (in general, the IC50 on a negative log10 scale, so that one unit is a factor of ten) with BV-2 [1] is less than 4.52. The CC50 (commonly the concentration at which the toxic effect on the cells reaches its halfway point) at 24 h in data set [2] turned out to be 76 µM.
Regarding `CNC(=N)NCCC[C@H](N)C(=O)O` [TILARGININE], the pIC50 in the data set with BV-2 [1] is 5.00. The CC50 at 24 h in data set [2] is more than 200 µM.
The matching figures for `Cc1c2c(cc(C(C)C)cc1=O)[C@@](C)(O)CC2`: less than 4.52 and 79 µM.
Take `CC(C)c1cc2c(c(CO)c(=O)c1)[C@H](O)C[C@@H]2C`: the inhibition entry (in [3]; in the data set on BV-2 [7]; in the data set on BV-2 [15]; in data set [16]) was “inactive” each time. The result in the data set on BV-2 [4], with BV-2 [5], with BV-2 [6], in the data set on BV-2 [8], in the data set on BV-2 [9] and in the data set on BV-2 [10] was Active. Further, the result with BV-2 [11], in the data set with BV-2 [12] and in the data set with BV-2 [17] was Active. Further, in the data set on BV-2 [1], the pIC50 is 5.05. Besides, in data set [2], the CC50 at 24 h is 74 µM. The inhibition result in [13] is “Active”. Besides, in the data set with BV-2 [14], the Activity result was “Dose-Dependent Effect”.
On to `CC(C)c1cc2c(c(CO)c(=O)c1)[C@@H](O)C[C@@H]2C`, for which the pIC50 in the data set on BV-2 [1] is 4.70. For the same compound, the half-maximal cytotoxic concentration (CC50) at 24 h in data set [2] worked out at 49 µM.
With `Cc1c2c(cc(C(C)C)cc1=O)[C@@H](C)C[C@H]2O`, the pIC50 with BV-2 [1] is 4.59. The CC50 at 24 h in data set [2] stood at 78 µM.
The matching figures for `Cc1c2c(cc(C(C)C)cc1=O)[C@](C)(O)C[C@@H]2O`: less than 4.52 and 49 µM.
The matching figures for `Cc1c2c(cc(C(C)(C)O)cc1=O)[C@@H](C)C[C@@H]2O`: less than 4.52 and 39 µM.
For `CC(C)c1cc2c(c(CO)c(=O)c1)CC[C@@]2(C)O`, in that order: less than 4.52 and 61 µM.
As to `Cc1c2c(cc(C(C)C)cc1=O)[C@@H](C)C[C@@H]2O`, in the data set with BV-2 [1], the pIC50 is less than 4.52. The CC50 at 24 h in [2] stood at 35 µM.
